In US20240294572A1, “Antimicrobial Peptides” (priority 2021, published 2024):
Converted amounts (≈) assume the structure as drawn. Residues, ends and D or L forms follow the SMILES beside them. *: point of attachment. Lauroyl = CCCCCCCCCCCC(=O)*; Decanoyl = CCCCCCCCCC(=O)*; Octanoyl = CCCCCCCC(=O)*; Hexanoyl = CCCCCC(=O)*

How the values were obtained:
Type in all cases: cell-based
[1] = test system: human red blood cells (hRBCs); details: red cells of human, 1 h
Protocol: Hemolytic assays of peptides were performed as described (Lakshmaiah, et al. (2020) Proc. Natl. Acad. Sci., 117:19446-19454). Briefly, human red blood cells (hRBCs) were obtained from UNMC Blood Bank. The cells were washed 3× with isotonic saline (0.9% NaCl) and diluted to 2% (v/v). Peptides at various concentrations were added to the 2% blood cells and incubated at 37° C. for 1 hour. Post-incubation, the plates were spun at 2000 rpm for 10 minutes; aliquots of the supernatant were carefully transferred to a fresh 96-well microplate. The amount of cells lysed is proportional to the hemoglobin released and was measured at 545 nm using a ChroMate® microplate reader (Awareness Technology, FL). The percent lysis was calculated by assuming 100% release when human blood cells were treated with 1% Triton™ X-100, and 0% release when incubated with PBS. The peptide concentration that caused 50% lysis of hRBCs is defined as HC50. The cell selectivity index (CSI) was calculated as the ratio between HC50 and the MIC of the corresponding peptide against MRSA.

S. aureus USA300 LAC = details: USA300
Protocol: (§1) The antibacterial activity of peptides was evaluated using a standard broth microdilution protocol (Clinical Laboratories Standards Institute (CLSI): M07-A10. Methods for Dilution Antimicrobial Susceptibility Tests for Bacteria that grow aerobically; Approved Standard, Tenth Edition, 2015) with minor modifications as described (Mishra, et al. (2019) Proc. Natl. Acad. Sci., 116:13517-13522). In brief, peptides (10 μL per well) with 2-fold dilutions were made in 96-well polystyrene microplates. Subsequently, the logarithmic phase bacterial cultures (i.e., optical density at 600 nm ˜0.5) were diluted to 0.001 OD and aliquoted to 90 μL per well. The plates were incubated overnight at 37°° C. Bacterial controls were treated with water, and the wells containing only the TSB media were used as blank. Positive controls included the parent peptide LL-37 as well as KR12. Post incubation, the plates were read at 630 nm using ChroMate® 4300 Microplate Reader (Awareness Technology, FL).
(§2) To study the influence of medium conditions on the antimicrobial activity of peptides against S. aureus USA300, different pH, sodium chloride (NaCl), human sera were included into the antibacterial assays. Control experiments in TSB without any additions (pH 7.4) were set up in the same manner. In addition, antimicrobial activities of human LL-37, KR12, and C10-KR8d were compared in 10%, 50%, and 100% TSB as well as in TSB and MHB using E. coli ATCC 25922 and S. aureus USA300 LAC.

E. coli ATCC 25922 = test system: E. coli ATCC 25922
Protocol: as §1, §2

P. aeruginosa PAO1 = test system: P. aeruginosa PAO1
Protocol: as §1

[2] = test system: Klebsiella pneumonia ATCC 13883; assay: Antibacterial broth microdilution MIC
Protocol: as §1

## CCCCCC(=O)N[C@@H](CCCCN)C(=O)N[C@@H](CCCNC(=N)N)C(=O)N[C@H](C(=O)N[C@@H](Cc1c[nH]c2ccccc12)C(N)=O)[C@@H](C)CC [Peptide C6-KR4] (Hexanoyl-KRIW-NH2)
[1]
  HC50: >200 µM
S. aureus USA300 LAC
  MIC (μM) SA: >50 µM
E. coli ATCC 25922
  MIC (μM) EC: >50 µM
P. aeruginosa PAO1
  MIC (μM) PA: >50 µM
[2]
  MIC (μM) KP: >50 µM

## CCCCCC(=O)N[C@@H](CCCCN)C(=O)N[C@@H](CCCNC(=N)N)C(=O)N[C@H](C(=O)N[C@@H](Cc1c[nH]c2ccccc12)C(=O)N[C@@H](CCC(N)=O)C(=O)N[C@@H](CCCNC(=N)N)C(N)=O)[C@@H](C)CC [Peptide C6-KR6] (Hexanoyl-KRIWQR-NH2)
[1]
  HC50: >200 µM
S. aureus USA300 LAC
  MIC (μM) SA: >50 µM
E. coli ATCC 25922
  MIC (μM) EC: >50 µM
P. aeruginosa PAO1
  MIC (μM) PA: >50 µM
[2]
  MIC (μM) KP: >50 µM

## CCCCCC(=O)N[C@@H](CCCCN)C(=O)N[C@@H](CCCNC(=N)N)C(=O)N[C@H](C(=O)N[C@@H](Cc1c[nH]c2ccccc12)C(=O)N[C@@H](CCC(N)=O)C(=O)N[C@@H](CCCNC(=N)N)C(=O)N[C@H](C(=O)N[C@@H](CCCCN)C(N)=O)[C@@H](C)CC)[C@@H](C)CC [Peptide C6-KR8] (Hexanoyl-KRIWQRIK-NH2)
[1]
  HC50: >200 µM
S. aureus USA300 LAC
  MIC (μM) SA: >50 µM
E. coli ATCC 25922
  MIC (μM) EC: >50 µM
P. aeruginosa PAO1
  MIC (μM) PA: >50 µM
[2]
  MIC (μM) KP: >50 µM

## CCCCCC(=O)N[C@@H](CCCCN)C(=O)N[C@@H](CCCNC(=N)N)C(=O)N[C@H](C(=O)N[C@@H](Cc1c[nH]c2ccccc12)C(=O)N[C@@H](CCC(N)=O)C(=O)N[C@@H](CCCNC(=N)N)C(=O)N[C@H](C(=O)N[C@@H](CCCCN)C(=O)N[C@@H](CC(=O)O)C(=O)N[C@@H](Cc1ccccc1)C(N)=O)[C@@H](C)CC)[C@@H](C)CC [Peptide C6-KR10] (Hexanoyl-KRIWQRIKDF-NH2)
[1]
  HC50: >200 µM
S. aureus USA300 LAC
  MIC (μM) SA: 25 µM (≈ 37.2 µg/mL)
E. coli ATCC 25922
  MIC (μM) EC: 50 µM (≈ 74.3 µg/mL)
P. aeruginosa PAO1
  MIC (μM) PA: 50 µM (≈ 74.3 µg/mL)
[2]
  MIC (μM) KP: >50 µM

## CCCCCC(=O)N[C@@H](CCCCN)C(=O)N[C@@H](CCCNC(=N)N)C(=O)N[C@H](C(=O)N[C@@H](Cc1c[nH]c2ccccc12)C(=O)N[C@@H](CCC(N)=O)C(=O)N[C@@H](CCCNC(=N)N)C(=O)N[C@H](C(=O)N[C@@H](CCCCN)C(=O)N[C@@H](CC(=O)O)C(=O)N[C@@H](Cc1ccccc1)C(=O)N[C@@H](CC(C)C)C(=O)N[C@@H](CCCNC(=N)N)C(N)=O)[C@@H](C)CC)[C@@H](C)CC [Peptide C6-KR12] (Hexanoyl-KRIWQRIKDFLR-NH2)
[1]
  HC50: 25 µM
S. aureus USA300 LAC
  MIC (μM) SA: <1.5 µM
E. coli ATCC 25922
  MIC (μM) EC: 3.1 µM (≈ 5.44 µg/mL)
P. aeruginosa PAO1
  MIC (μM) PA: 12.5 µM (≈ 22 µg/mL)
[2]
  MIC (μM) KP: 6.2 µM (≈ 10.9 µg/mL)

## CCCCCCCC(=O)N[C@@H](CCCCN)C(=O)N[C@@H](CCCNC(=N)N)C(=O)N[C@H](C(=O)N[C@@H](Cc1c[nH]c2ccccc12)C(N)=O)[C@@H](C)CC [Peptide C8-KR4] (Octanoyl-KRIW-NH2)
[1]
  HC50: >200 µM
S. aureus USA300 LAC
  MIC (μM) SA: >50 µM
E. coli ATCC 25922
  MIC (μM) EC: >50 µM
P. aeruginosa PAO1
  MIC (μM) PA: >50 µM
[2]
  MIC (μM) KP: >50 µM

## CCCCCCCC(=O)N[C@@H](CCCCN)C(=O)N[C@@H](CCCNC(=N)N)C(=O)N[C@H](C(=O)N[C@@H](Cc1c[nH]c2ccccc12)C(=O)N[C@@H](CCC(N)=O)C(=O)N[C@@H](CCCNC(=N)N)C(N)=O)[C@@H](C)CC [Peptide C8-KR6] (Octanoyl-KRIWQR-NH2)
[1]
  HC50: >200 µM
S. aureus USA300 LAC
  MIC (μM) SA: >50 µM
E. coli ATCC 25922
  MIC (μM) EC: 50 µM (≈ 50.6 µg/mL)
P. aeruginosa PAO1
  MIC (μM) PA: >50 µM
[2]
  MIC (μM) KP: >50 µM

## CCCCCCCC(=O)N[C@@H](CCCCN)C(=O)N[C@@H](CCCNC(=N)N)C(=O)N[C@H](C(=O)N[C@@H](Cc1c[nH]c2ccccc12)C(=O)N[C@@H](CCC(N)=O)C(=O)N[C@@H](CCCNC(=N)N)C(=O)N[C@H](C(=O)N[C@@H](CCCCN)C(N)=O)[C@@H](C)CC)[C@@H](C)CC [Peptide C8-KR8] (Octanoyl-KRIWQRIK-NH2)
[1]
  HC50: >200 µM
S. aureus USA300 LAC
  MIC (μM) SA: 6.2 µM (≈ 7.77 µg/mL)
E. coli ATCC 25922
  MIC (μM) EC: 25 µM (≈ 31.3 µg/mL)
P. aeruginosa PAO1
  MIC (μM) PA: 12.5 µM (≈ 15.7 µg/mL)
[2]
  MIC (μM) KP: >50 µM

## CCCCCCCC(=O)N[C@@H](CCCCN)C(=O)N[C@@H](CCCNC(=N)N)C(=O)N[C@H](C(=O)N[C@@H](Cc1c[nH]c2ccccc12)C(=O)N[C@@H](CCC(N)=O)C(=O)N[C@@H](CCCNC(=N)N)C(=O)N[C@H](C(=O)N[C@@H](CCCCN)C(=O)N[C@@H](CC(=O)O)C(=O)N[C@@H](Cc1ccccc1)C(=O)N[C@@H](CC(C)C)C(=O)N[C@@H](CCCNC(=N)N)C(N)=O)[C@@H](C)CC)[C@@H](C)CC [Peptide C8-KR12] (Octanoyl-KRIWQRIKDFLR-NH2)
[1]
  HC50: <25 µM
S. aureus USA300 LAC
  MIC (μM) SA: 3.1 µM (≈ 5.53 µg/mL)
E. coli ATCC 25922
  MIC (μM) EC: 6.2 µM (≈ 11.1 µg/mL)
P. aeruginosa PAO1
  MIC (μM) PA: 6.2 µM (≈ 11.1 µg/mL)
[2]
  MIC (μM) KP: <6.2 µM

## CCCCCCCCCC(=O)N[C@@H](CCCCN)C(=O)N[C@@H](CCCNC(=N)N)C(=O)N[C@H](C(=O)N[C@@H](Cc1c[nH]c2ccccc12)C(N)=O)[C@@H](C)CC [Peptide C10-KR4] (Decanoyl-KRIW-NH2)
[1]
  HC50: 150 µM
S. aureus USA300 LAC
  MIC (μM) SA: 12.5 µM (≈ 9.44 µg/mL)
E. coli ATCC 25922
  MIC (μM) EC: 50 µM (≈ 37.8 µg/mL)
P. aeruginosa PAO1
  MIC (μM) PA: 12.5 µM (≈ 9.44 µg/mL)
[2]
  MIC (μM) KP: >50 µM

## CCCCCCCCCC(=O)N[C@@H](CCCCN)C(=O)N[C@@H](CCCNC(=N)N)C(=O)N[C@H](C(=O)N[C@@H](Cc1c[nH]c2ccccc12)C(=O)N[C@@H](CCC(N)=O)C(=O)N[C@@H](CCCNC(=N)N)C(N)=O)[C@@H](C)CC [Peptide C10-KR6] (Decanoyl-KRIWQR-NH2)
[1]
  HC50: >340 µM
S. aureus USA300 LAC
  MIC (μM) SA: 12.5 µM (≈ 13 µg/mL)
E. coli ATCC 25922
  MIC (μM) EC: 50 µM (≈ 52 µg/mL)
P. aeruginosa PAO1
  MIC (μM) PA: 25 µM (≈ 26 µg/mL)
[2]
  MIC (μM) KP: >50 µM

## CCCCCCCCCC(=O)N[C@@H](CCCCN)C(=O)N[C@@H](CCCNC(=N)N)C(=O)N[C@H](C(=O)N[C@@H](Cc1c[nH]c2ccccc12)C(=O)N[C@@H](CCC(N)=O)C(=O)N[C@@H](CCCNC(=N)N)C(=O)N[C@H](C(=O)N[C@@H](CCCCN)C(=O)N[C@@H](CC(=O)O)C(=O)N[C@@H](Cc1ccccc1)C(N)=O)[C@@H](C)CC)[C@@H](C)CC [Peptide C10-KR10] (Decanoyl-KRIWQRIKDF-NH2)
[1]
  HC50: 50 µM
S. aureus USA300 LAC
  MIC (μM) SA: 1.5 µM (≈ 2.31 µg/mL)
E. coli ATCC 25922
  MIC (μM) EC: 3.1 µM (≈ 4.78 µg/mL)
[2]
  MIC (μM) KP: 6.2 µM (≈ 9.57 µg/mL)

## CCCCCCCCCC(=O)N[C@@H](CCCCN)C(=O)N[C@@H](CCCNC(=N)N)C(=O)N[C@H](C(=O)N[C@@H](Cc1c[nH]c2ccccc12)C(=O)N[C@@H](CCC(N)=O)C(=O)N[C@@H](CCCNC(=N)N)C(=O)N[C@H](C(=O)N[C@@H](CCCCN)C(=O)N[C@@H](CC(=O)O)C(=O)N[C@@H](Cc1ccccc1)C(=O)N[C@@H](CC(C)C)C(=O)N[C@@H](CCCNC(=N)N)C(N)=O)[C@@H](C)CC)[C@@H](C)CC [Peptide C10-KR12] (Decanoyl-KRIWQRIKDFLR-NH2)
[1]
  HC50: <25 µM
S. aureus USA300 LAC
  MIC (μM) SA: 3.1 µM (≈ 5.62 µg/mL)
E. coli ATCC 25922
  MIC (μM) EC: >50 µM
P. aeruginosa PAO1
  MIC (μM) PA: 25 µM (≈ 45.3 µg/mL)
[2]
  MIC (μM) KP: 6.2 to 12.5 µM

## CCCCCCCCCCCC(=O)N[C@@H](CCCCN)C(=O)N[C@@H](CCCNC(=N)N)C(=O)N[C@H](C(=O)N[C@@H](Cc1c[nH]c2ccccc12)C(=O)N[C@@H](CCC(N)=O)C(=O)N[C@@H](CCCNC(=N)N)C(=O)N[C@H](C(=O)N[C@@H](CCCCN)C(=O)N[C@@H](CC(=O)O)C(=O)N[C@@H](Cc1ccccc1)C(N)=O)[C@@H](C)CC)[C@@H](C)CC [Peptide C12-KR10] (Lauroyl-KRIWQRIKDF-NH2)
[1]
  HC50: <25 µM
S. aureus USA300 LAC
  MIC (μM) SA: 1.5 µM (≈ 2.36 µg/mL)
E. coli ATCC 25922
  MIC (μM) EC: 6.2 µM (≈ 9.74 µg/mL)
[2]
  MIC (μM) KP: 3.1 µM (≈ 4.87 µg/mL)
